Measured values as given in patent US20100146643A1, “RAPID IN VIVO MODEL FOR ANGIOGENESIS” (ANTICANCER, INC, priority 2006, published 2010).

Assays:
[1] = tested on: XPA-1-RFP human pancreatic cancer; conditions: liver metastasis of XPA-1-RFP, ND-GFP transgenic nude mice; cited from earlier work
[2] = tested on: MIA PaCa-2 human pancreatic cancer; conditions: orthotopically transplanted MIA PaCa-2-RFP, ND-GFP transgenic nude mice; cited from earlier work
[3] = tested on: nascent blood vessels in bFGF-containing Gelfoam; experiment: Gelfoam subcutaneous implant angiogenesis model in ND-GFP transgenic nude mice; assay type: in vivo, mouse
Experimental: Transgenic C57/B6 nude mice that produce green fluorescent protein (GFP) in endothelial cells were used. These transgenic mice (6-8 weeks old) were anesthetized with tribromoethanol. Gelfoam® (Pharmacia & Upjohn company, Kalamazoo, Mich.) blocks (5×5 mm) were either treated with 300 ng basic fibroblast growth factor (bFGF) (Chemicon, Temecula, Calif.) in 75 μl RPMI 1640 medium (Cellgro, Herndon, Va.) or not treated. The Gelfoam® blocks were transplanted into the subcutis on both flanks of the transgenic mice, a treated block on one flank and an untreated block on the other. One group of mice was given daily ip injections of 5 μg/g of doxorubicin and another group was given 0.9% NaCl solution (vehicle control) at days 0, 1, and 2 after transplantation of Gelfoam®. Skin flaps were made at day 7 under anesthesia. Angiogenesis was quantified by measuring the length of fluorescent nascent blood vessels in the skin flap by in vivo fluorescence microscopy imaging.
A Leica fluorescence stereo microscope model LZ12 equipped with a mercury lamp and a 50-W power supply was used. Selective excitation of GFP was produced through a D425/60 band-pass filter and a 470 DCXR dichroic mirror. Emitted fluorescence was collected through a long-pass filter (GG475; Chroma Technology, Brattleboro, Vt.) on a Hamamatsu C5810 3-chip cooled color charge-coupled device camera (Hamamatsu Photonics, Bridgewater, N.J.). Images were processed for contrast and brightness and analyzed with the use of IMAGE PRO PLUS 3.1 software (Media Cybernetics, Silver Spring, Md.). High-resolution images of 1024×724 pixels were captured directly on an IBM PC or continuously through video output on a high-resolution Sony VCR (model SLVR1000; Sony, Tokyo).
The experimental data are expressed as the mean ±SD. Statistical analysis was performed using the two-tailed Student's t test.

[4] = tested on: B16F10-RFP murine melanoma; conditions: ND-GFP mice transplanted with B16F10-RFP; cited from earlier work
[5] = Gelfoam containing 300 ng bFGF, mice given 0.9% NaCl, day 7

For `Nc1ccn([C@@H]2O[C@H](CO)[C@@H](O)C2(F)F)c(=O)n1` [Gemcitabine], the “mean nascent blood vessel density in the liver metastases” value [1] is listed as “significantly decreased”, the “mean nascent blood vessel density in the tumor” value [2] is listed as “significantly decreased” and the tumor volume [2] is listed as “decreased tumor volume”.

With `COc1cccc2c1C(=O)c1c(O)c3c(c(O)c1C2=O)C[C@@](O)(C(=O)CO)C[C@@H]3O[C@H]1C[C@H](N)[C@H](O)[C@H](C)O1` [doxorubicin] the “extent of angiogenesis (mean nascent blood vessel length, FIG. 4) in bFGF-treated Gelfoam” value ([3]; doxorubicin 5 μg/g ip at days 0, 1, 2, day 7, compared with untreated Gelfoam in NaCl-treated mice) was “reduced below that of untreated Gelfoam® in the sodium chloride treated mice”, the “neovasculature in the bFGF-treated foam (FIG. 2c)” value ([3]; doxorubicin 5 μg/g ip at days 0, 1, 2, skin flap at day 7, Gelfoam with 300 ng bFGF) was “greatly diminished neovasculature” and the “angiogenesis in the foam not containing bFGF (FIG. 2d)” value ([3]; doxorubicin 5 μg/g ip at days 0, 1, 2, skin flap at day 7, Gelfoam without bFGF) was “no observable angiogenesis”. The nascent tumor angiogenesis [4] was “inhibit nascent tumor angiogenesis” and the tumor growth [4] was “inhibit”.

In the case of “bFGF: basic fibroblast growth factor (Chemicon), growth factor loaded in Gelfoam to encourage angiogenesis”, the “mean nascent blood vessel length” value [3, 5] is reported as ~6 mm/mm^2 and the “neovasculature formed in the bFGF-containing Gelfoam patch (FIG. 2a)” value [3, 5] is reported as “a large complex of neovasculature is formed”.
